Assay results reported in PubChem BioAssay AID248 (DTP/NCI, 2004).
“And” between values parts separate entries of the source, which are not always exact repeats. Equal values may be shown once. Toxic doses and inconclusive results are not listed. No stated cut-off is given here; in the data, active means T/C of 150% or more; inactive means T/C below 125%.

Tested on: L1210 leukemia ip in BDF1 mice, survival T/C
Assay: NCI In Vivo Anticancer Drug Screen. Data for tumor model L1210 Leukemia (intraperitoneal) in B6D2F1 (BDF1) mice
Conditions: endpoint: mean survival time, higher = longer survival
Outline: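 Value reflects the ratio of survival in compound-treated mice to survival in vehicle-treated controls, with both groups carrying the same transplanted tumor.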

[1] = dose: 100.0 mg/kg/injection, schedule: Q04DX003 (ip), vehicle: Klucel (hydroxypropylcellulose) (HPC)
[2] = dose: 200.0 mg/kg/injection, schedule: Q04DX003 (ip), vehicle: Klucel (hydroxypropylcellulose) (HPC)
[3] = dose: 400.0 mg/kg/injection, schedule: Q04DX003 (ip), vehicle: Klucel (hydroxypropylcellulose) (HPC)
[4] = dose: 50.0 mg/kg/injection, schedule: Q01DX001 (ip), vehicle: carboxymethylcellulose (CMC)
[5] = dose: 100.0 mg/kg/injection, schedule: Q01DX001 (ip), vehicle: carboxymethylcellulose (CMC)
[6] = dose: 100.0 mg/kg/injection, schedule: Q01DX009 (ip), vehicle: Klucel (hydroxypropylcellulose) (HPC)
[7] = dose: 200.0 mg/kg/injection, schedule: Q01DX001 (ip), vehicle: carboxymethylcellulose (CMC)
[8] = dose: 200.0 mg/kg/injection, schedule: Q01DX009 (ip), vehicle: Klucel (hydroxypropylcellulose) (HPC)
[9] = dose: 400.0 mg/kg/injection, schedule: Q01DX001 (ip), vehicle: carboxymethylcellulose (CMC)
[10] = dose: 400.0 mg/kg/injection, schedule: Q01DX009 (ip), vehicle: Klucel (hydroxypropylcellulose) (HPC)
[11] = dose: 100.0 mg/kg/injection, schedule: Q01DX001 (ip), vehicle: saline
[12] = dose: 200.0 mg/kg/injection, schedule: Q01DX001 (ip), vehicle: saline
[13] = dose: 400.0 mg/kg/injection, schedule: Q01DX001 (ip), vehicle: saline
[14] = dose: 100.0 mg/kg/injection, schedule: Q01DX009 (ip), vehicle: saline with Tween-80
[15] = dose: 200.0 mg/kg/injection, schedule: Q01DX009 (ip), vehicle: saline with Tween-80
[16] = dose: 400.0 mg/kg/injection, schedule: Q01DX009 (ip), vehicle: saline with Tween-80
[17] = dose: 100.0 mg/kg/injection, schedule: Q04DX003 (ip), vehicle: saline with Tween-80
[18] = dose: 200.0 mg/kg/injection, schedule: Q04DX003 (ip), vehicle: saline with Tween-80
[19] = dose: 400.0 mg/kg/injection, schedule: Q04DX003 (ip), vehicle: saline with Tween-80
[20] = dose: 50.0 mg/kg/injection, schedule: Q01DX001 (ip), vehicle: saline
[21] = dose: 50.0 mg/kg/injection, schedule: Q01DX009 (ip), vehicle: Klucel (hydroxypropylcellulose) (HPC)

Measured: T/C

CCOC(=O)Cc1cnc(SC)nc1N
inactive: [1] 95 % of control | [2] 94 % of control | [3] 87 % of control

COC1=C(NC2CCCCC2)C(=O)C(OC)=C(NC2CCCCC2)C1=O
inactive: [4] 103 % of control | [5] 101 % of control | [6] 86 % of control | [1] 96 % of control | [7] 101 % of control | [8] 98 % of control | [2] 94 % of control | [9] 103 % of control | [10] 91 % of control | [3] 94 % of control

C1CSC2(CCC(C3CCC4(CC3)SCCS4)CC2)S1 (configuration not stated)
inactive: dose: 75.0 mg/kg/injection, schedule: Q01DX009 (ip), vehicle: saline 92 % of control | [11] 88 % of control | dose: 150.0 mg/kg/injection, schedule: Q01DX009 (ip), vehicle: saline 97 % of control | [12] 91 % of control | dose: 300.0 mg/kg/injection, schedule: Q01DX009 (ip), vehicle: saline 87 % of control | [13] 93 % of control

OCCNCc1cccc(-c2ccccc2)c1O
inactive: [14] 93 % of control | [15] 87 % of control | [16] 101 % of control

CCOC(=O)CCN(Cc1ccco1)C(=S)Nc1ccccc1
inactive: dose: 200.0 mg/kg/injection, schedule: Q01DX Z (ip), vehicle: methylcellulose (MC) 89 % of control

NC(=NCc1ccccc1)c1ncn(C2CCCC2)c1N
inactive: dose: 12.5 mg/kg/injection, schedule: Q01DX001 (ip), vehicle: Klucel (hydroxypropylcellulose) (HPC) 103 % of control | dose: 25.0 mg/kg/injection, schedule: Q01DX001 (ip), vehicle: Klucel (hydroxypropylcellulose) (HPC) 102 % of control | dose: 50.0 mg/kg/injection, schedule: Q01DX001 (ip), vehicle: Klucel (hydroxypropylcellulose) (HPC) 96 % of control

CCC(C)(C)C(=O)Nc1cccc(OC(=O)NC)c1
inactive: [16] 93 % of control

O=C(Cc1ccccc1)NC1=C(NCc2ccccc2)C(=O)c2ccccc2C1=O
inactive: [17] 105 % of control | [18] 98 % of control | [19] 96 % of control

Cc1c(C)c2ccccc2[nH]c1=O
inactive: [5] 88 % of control | [11] 100 % of control | [7] 88 % of control | [12] 95 % of control | [9] 96 % of control | [13] 95 % of control

COC(=O)C1C2C=CC(C2)C1C(=O)O (configuration not stated)
inactive: [6] 103 % of control | [14] 92 % of control | [1] 98 % of control | [8] 92 % of control | [15] 86 % of control | [2] 97 % of control | [10] 88 % of control | [16] 87 % of control | [3] 97 % of control

CCCCNC(=O)C1C2C=CC(C2)C1C(=O)NCCCC (configuration not stated)
inactive: [17] 96 % of control | [18] 96 % of control | [19] 91 % of control

N#CC(C#N)=Cc1c[nH]c2ccccc12
inactive: [14] 86 % of control | [17] 95 % of control | [15] 89 % of control | [18] 97 % of control | [16] 86 % of control

CCOC(=O)CN1CCC(C(=O)OCC)CC1
inactive: [4] 106 % of control | [5] 97 % of control | [7] 103 % of control | [9] 106 % of control

COC(=O)C1=C2c3ccccc3NC(=O)N2NC1C(=O)OC (configuration not stated)
inactive: dose: 50.0 mg/kg/injection, schedule: Q04DX002 (ip), vehicle: saline 108 % of control | dose: 100.0 mg/kg/injection, schedule: Q04DX002 (ip), vehicle: saline 90 % of control | dose: 200.0 mg/kg/injection, schedule: Q04DX002 (ip), vehicle: saline 90 % of control

COc1ccccc1CNCCCO
inactive: [20] 96 % of control | [11] 102 % of control | [12] 106 % of control | [13] 100 % of control

CCNC(=S)N(CC)CC
inactive: [21] 104 % of control | [6] 102 % of control | [17] 100 % of control | [8] 114 % of control | [18] 103 % of control

N#C/C(=C(/Cc1ccc(F)cc1)NP(=O)(c1ccccc1)c1ccccc1)c1ccc(F)cc1
inactive: dose: 100.0 mg/kg/injection, schedule: Q01DX001 (ip), vehicle: steriod suspending solution 101 % of control | dose: 200.0 mg/kg/injection, schedule: Q01DX001 (ip), vehicle: steriod suspending solution 90 % of control

O=[N+]([O-])c1ccc(-c2ccc([N+](=O)[O-])c(-c3ccccc3)c2)cc1
inactive: [17] 93 % of control | [18] 88 % of control

Nc1ccc(C(=O)O)c(O)c1.Nc1ccc(C(=O)O)c(O)c1.[Na+].[O]=[V]
inactive: dose: 2.0 mg/kg/injection, schedule: Q01DX015 (ip), vehicle: carboxymethylcellulose (CMC) 98 % of control | dose: 4.0 mg/kg/injection, schedule: Q01DX015 (ip), vehicle: carboxymethylcellulose (CMC) 93 % of control | dose: 8.0 mg/kg/injection, schedule: Q01DX015 (ip), vehicle: carboxymethylcellulose (CMC) 100 % of control | dose: 16.0 mg/kg/injection, schedule: Q01DX015 (ip), vehicle: carboxymethylcellulose (CMC) 110 % of control and 113 % of control | dose: 32.0 mg/kg/injection, schedule: Q01DX015 (ip), vehicle: carboxymethylcellulose (CMC) 101 % of control

O=C1N/C(=N/OCc2ccc([N+](=O)[O-])cc2)CC(NOCc2ccc([N+](=O)[O-])cc2)N1 (configuration not stated)
inactive: [17] 91 % of control | [18] 101 % of control | [19] 89 % of control

S=c1[nH]c2ccc(Cl)cc2s1
inactive: dose: 25.0 mg/kg/injection, schedule: Q01DX009 (ip), vehicle: Klucel (hydroxypropylcellulose) (HPC) 101 % of control | dose: 25.0 mg/kg/injection, schedule: Q04DX003 (ip), vehicle: Klucel (hydroxypropylcellulose) (HPC) 115 % of control | [21] 97 % of control | dose: 50.0 mg/kg/injection, schedule: Q04DX003 (ip), vehicle: Klucel (hydroxypropylcellulose) (HPC) 106 % of control | [6] 97 % of control | [1] 96 % of control

C[N+](C)(C)CCOC(=O)c1ccc(CBr)c(CBr)c1
inactive: dose: 6.25 mg/kg/injection, schedule: Q01DX009 (ip), vehicle: saline 97 % of control | dose: 6.25 mg/kg/injection, schedule: Q04DX003 (ip), vehicle: saline 96 % of control | dose: 12.5 mg/kg/injection, schedule: Q01DX009 (ip), vehicle: saline 99 % of control | dose: 12.5 mg/kg/injection, schedule: Q04DX003 (ip), vehicle: saline 96 % of control | dose: 25.0 mg/kg/injection, schedule: Q01DX009 (ip), vehicle: saline 104 % of control | dose: 25.0 mg/kg/injection, schedule: Q04DX003 (ip), vehicle: saline 98 % of control

[Cl][Sn]([Cl])([c]1ccccc1)[c]1ccccc1
inactive: dose: 12.5 mg/kg/injection, schedule: Q01DX001 (ip), vehicle: saline 108 % of control | dose: 25.0 mg/kg/injection, schedule: Q01DX001 (ip), vehicle: saline 96 % of control | [20] 100 % of control

NC(=O)C1CCCCC1C(N)=O (configuration not stated)
inactive: [17] 96 % of control | [18] 102 % of control | [19] 96 % of control

COc1ccc(CCC(C)=O)cc1OC
inactive: [6] 97 % of control | [8] 93 % of control

CC(=O)OCCS(=O)(=O)c1c(Cl)c(Cl)c(Cl)c(Cl)c1Cl
inactive: dose: 100.0 mg/kg/injection, schedule: Q04DX002 (ip), vehicle: Klucel (hydroxypropylcellulose) (HPC) 95 % of control | dose: 200.0 mg/kg/injection, schedule: Q04DX002 (ip), vehicle: Klucel (hydroxypropylcellulose) (HPC) 88 % of control

CCOC(=O)c1[nH]c2ccccc2c1CN(CCCl)CCCl
inactive: dose: 2.5 mg/kg/injection, schedule: Q01DX Z (ip), vehicle: saline 107 % of control | dose: 5.0 mg/kg/injection, schedule: Q01DX Z (ip), vehicle: saline 108 % of control | dose: 10.0 mg/kg/injection, schedule: Q01DX Z (ip), vehicle: other 120 % of control | dose: 10.0 mg/kg/injection, schedule: Q01DX Z (ip), vehicle: saline 120 % of control | dose: 20.0 mg/kg/injection, schedule: Q01DX Z (ip), vehicle: other 122 % of control

CON(C)c1nc2ccccc2o1
inactive: [20] 103 % of control | [11] 100 % of control | [12] 100 % of control | [13] 100 % of control
